According to ChEMBL document CHEMBL5528048, “Discovery of Novel Potent and Fast BTK PROTACs for the Treatment of Osteoclasts-Related Inflammatory Diseases” (J Med Chem, 2024):
Activity calls are given as the source filed them. No cut-off for these calls is given here.

Assays:
[1] = biological target: T1, Protein cereblon/Tyrosine-protein kinase BTK (Homo sapiens, UniProt Q06187+Q96SW2); experiment: PROTAC activity at BTK/CRBN in human MINO cells assessed as BTK protein degradation at 100 nM measured after 24 hrs by Western blotting analysis relative to control; assay type: cell-based
Target sequence in this assay (Q06187 2-659 limits assumed): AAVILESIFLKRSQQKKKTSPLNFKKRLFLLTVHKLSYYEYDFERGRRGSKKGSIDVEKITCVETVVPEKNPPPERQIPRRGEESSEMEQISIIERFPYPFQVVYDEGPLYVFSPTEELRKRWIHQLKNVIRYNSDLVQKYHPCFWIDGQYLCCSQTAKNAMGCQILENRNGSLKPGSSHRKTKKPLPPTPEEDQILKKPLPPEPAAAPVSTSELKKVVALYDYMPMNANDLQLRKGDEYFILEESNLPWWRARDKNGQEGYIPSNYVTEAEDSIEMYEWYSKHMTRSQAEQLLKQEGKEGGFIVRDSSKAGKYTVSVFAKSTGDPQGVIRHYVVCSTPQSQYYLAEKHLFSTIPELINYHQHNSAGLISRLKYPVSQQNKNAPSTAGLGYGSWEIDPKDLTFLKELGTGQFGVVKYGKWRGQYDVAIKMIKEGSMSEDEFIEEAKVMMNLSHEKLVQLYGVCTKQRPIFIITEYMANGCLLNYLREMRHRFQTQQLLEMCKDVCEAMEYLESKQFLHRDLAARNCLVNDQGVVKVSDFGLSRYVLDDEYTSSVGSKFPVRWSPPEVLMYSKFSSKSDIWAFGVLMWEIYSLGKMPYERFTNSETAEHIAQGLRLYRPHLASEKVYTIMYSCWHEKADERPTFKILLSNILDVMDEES
Target sequence in this assay (Q96SW2 whole entry partner): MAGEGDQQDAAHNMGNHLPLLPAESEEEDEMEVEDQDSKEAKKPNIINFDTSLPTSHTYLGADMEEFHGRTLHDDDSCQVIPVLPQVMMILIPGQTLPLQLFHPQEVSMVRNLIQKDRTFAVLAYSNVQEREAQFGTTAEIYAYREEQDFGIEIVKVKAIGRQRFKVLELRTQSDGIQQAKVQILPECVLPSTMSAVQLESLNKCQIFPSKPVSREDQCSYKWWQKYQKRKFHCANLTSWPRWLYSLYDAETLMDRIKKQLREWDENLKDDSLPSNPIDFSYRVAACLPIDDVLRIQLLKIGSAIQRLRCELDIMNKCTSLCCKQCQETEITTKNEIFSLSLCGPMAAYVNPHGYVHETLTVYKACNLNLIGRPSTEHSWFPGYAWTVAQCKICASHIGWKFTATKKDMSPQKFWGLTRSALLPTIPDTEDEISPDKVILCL

[2] = biological target: T1, Protein cereblon/Tyrosine-protein kinase BTK; experiment: PROTAC activity at BTK/CRBN in human MINO cells assessed as BTK protein degradation at 20 nM measured after 24 hrs by Western blotting analysis relative to control; assay type: cell-based
Target sequence in this assay (Q06187 2-659 limits assumed): as the sequence (Q06187 2-659 limits assumed) above
Target sequence in this assay (Q96SW2 whole entry partner): as the sequence (Q96SW2 whole entry partner) above

[3] = biological target: T1, Protein cereblon/Tyrosine-protein kinase BTK; experiment: PROTAC activity at BTK/CRBN in human MINO cells assessed as BTK protein degradation at 20 nM by Western blotting analysis; assay type: cell-based; details: time lower 2.0 hrs, time upper […], TDE = time-dependent effect
Target sequence in this assay (Q06187 2-659 limits assumed): as the sequence (Q06187 2-659 limits assumed) above
Target sequence in this assay (Q96SW2 whole entry partner): as the sequence (Q96SW2 whole entry partner) above

[4] = biological target: T1, Protein cereblon/Tyrosine-protein kinase BTK; experiment: PROTAC activity at BTK/CRBN in human MINO cells assessed as BTK protein degradation at 20 nM measured after 4 to 8 hrs by Western blotting analysis; assay type: cell-based; details: time 4-8 hrs
Target sequence in this assay (Q06187 2-659 limits assumed): as the sequence (Q06187 2-659 limits assumed) above
Target sequence in this assay (Q96SW2 whole entry partner): as the sequence (Q96SW2 whole entry partner) above

[5] = biological target: T1, Protein cereblon/Tyrosine-protein kinase BTK; experiment: PROTAC activity at BTK/CRBN in human MINO cells assessed as BTK protein degradation half life at 20 nM by Western blotting analysis; assay type: cell-based
Target sequence in this assay (Q06187 2-659 limits assumed): as the sequence (Q06187 2-659 limits assumed) above
Target sequence in this assay (Q96SW2 whole entry partner): as the sequence (Q96SW2 whole entry partner) above

[6] = biological target: T1, Protein cereblon/Tyrosine-protein kinase BTK; experiment: PROTAC activity at BTK/CRBN in human MINO cells assessed as BTK protein degradation measured for 4 hrs by Western blotting analysis; assay type: cell-based
Target sequence in this assay (Q06187 whole entry): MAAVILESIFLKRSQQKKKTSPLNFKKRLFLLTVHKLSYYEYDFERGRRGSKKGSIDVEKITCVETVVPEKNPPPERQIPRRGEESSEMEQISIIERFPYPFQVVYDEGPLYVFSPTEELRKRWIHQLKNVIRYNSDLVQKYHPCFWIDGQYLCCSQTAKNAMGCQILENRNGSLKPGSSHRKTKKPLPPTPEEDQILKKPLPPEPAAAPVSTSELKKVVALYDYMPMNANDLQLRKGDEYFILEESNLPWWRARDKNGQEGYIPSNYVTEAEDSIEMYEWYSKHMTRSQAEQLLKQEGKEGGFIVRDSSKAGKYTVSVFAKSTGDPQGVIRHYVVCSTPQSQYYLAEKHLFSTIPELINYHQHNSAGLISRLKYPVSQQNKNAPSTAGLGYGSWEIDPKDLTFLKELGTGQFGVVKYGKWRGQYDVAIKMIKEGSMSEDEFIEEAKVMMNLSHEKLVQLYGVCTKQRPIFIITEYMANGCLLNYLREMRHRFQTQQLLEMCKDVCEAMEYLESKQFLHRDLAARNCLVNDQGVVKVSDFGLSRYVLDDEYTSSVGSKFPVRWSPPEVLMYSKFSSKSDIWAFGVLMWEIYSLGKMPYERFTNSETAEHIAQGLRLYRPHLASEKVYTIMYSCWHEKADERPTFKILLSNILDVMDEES
Target sequence in this assay (Q96SW2 whole entry): as the sequence (Q96SW2 whole entry partner) above

[7] = biological target: T1, Protein cereblon/Tyrosine-protein kinase BTK; experiment: PROTAC activity at BTK/CRBN in human MINO cells assessed as BTK protein degradation by measuring onset time activity at 20 nM by Western blotting analysis; assay type: cell-based
Target sequence in this assay (Q06187 2-659 limits assumed): as the sequence (Q06187 2-659 limits assumed) above
Target sequence in this assay (Q96SW2 whole entry partner): as the sequence (Q96SW2 whole entry partner) above

[8] = AUC (0 to infinity) in Sprague-Dawley rat at 4 mg/kg, ip measured upto 48 hrs; assay type: ADME, organism-based; details: in vivo
[9] = AUC (0 to t) in Sprague-Dawley rat at 4 mg/kg, ip measured upto 48 hrs; assay type: ADME, organism-based; details: in vivo
[10] = Cmax in Sprague-Dawley rat at 4 mg/kg, ip measured upto 48 hrs; assay type: ADME, organism-based; details: in vivo
[11] = biological target: T2, Tyrosine-protein kinase BTK (Homo sapiens, UniProt Q06187); experiment: Binding affinity to BTK (unknown origin) assessed as inhibition constant measured after 60 mins incubation by microtiter-plate reader
[12] = biological target: T1, Protein cereblon/Tyrosine-protein kinase BTK; experiment: Binding affinity to BTK/CRBN (unknown origin) assessed as ternary complex formation by measuring peak HTRF ratio at wavelength 665/620 nm measured after 60 mins incubation by HTRF assay
[13] = biological target: T1, Protein cereblon/Tyrosine-protein kinase BTK; experiment: Binding affinity to BTK/CRBN (unknown origin) assessed as ternary complex formation by measuring peak concentration measured after 60 mins incubation by HTRF assay
Protein cereblon = Protein cereblon (Homo sapiens, UniProt Q96SW2); experiment: Inhibition of CRBN (unknown origin) measured after 60 mins incubation by BMG reader
[14] = biological target: T1, Protein cereblon/Tyrosine-protein kinase BTK; experiment: Binding affinity to BTK/CRBN (unknown origin) assessed as ternary complex formation measured after 60 mins incubation by HTRF assay
Target sequence in this assay (Q06187 whole entry): as the sequence (Q06187 whole entry) above
Target sequence in this assay (Q96SW2 whole entry): as the sequence (Q96SW2 whole entry partner) above

[15] = biological target: T1, Protein cereblon/Tyrosine-protein kinase BTK; experiment: PROTAC activity at BTK/CRBN in human MINO cells assessed as BTK protein degradation measured for 24 hrs by Western blotting analysis; assay type: cell-based
Target sequence in this assay (Q06187 whole entry): as the sequence (Q06187 whole entry) above
Target sequence in this assay (Q96SW2 whole entry): as the sequence (Q96SW2 whole entry partner) above

[16] = biological target: T1, Protein cereblon/Tyrosine-protein kinase BTK; experiment: PROTAC activity at BTK/CRBN in human MINO cells assessed as BTK protein degradation at 20 nM measured after 48 hrs by Western blotting analysis; assay type: cell-based
[17] = biological target: T2, Tyrosine-protein kinase BTK; experiment: Inhibition of BTK (unknown origin) measured after 60 mins incubation by microtiter-plate reader

T2 sequence (Q06187 whole entry): as the sequence (Q06187 whole entry) above
Protein cereblon, sequence (Q96SW2 whole entry): as the sequence (Q96SW2 whole entry partner) above

| Activity [1] | Activity [2] | Compound | further results |
| --- | --- | --- | --- |
| < 10% | – | O=C1CCC(N2C(=O)c3ccc(N4CCC(N5CCN(c6ccc(Nc7ncc(F)c(N8CCC(CO)CC8)n7)cc6)CC5)CC4)cc3C2=O)C(=O)N1 (centres undefined) | – |
| 21% | 99% | Cc1cc(-c2nc(Nc3ccn(C4CCN(CC5CCN(c6ccc7c(c6)C(=O)N(C6CCC(=O)NC6=O)C7=O)CC5)CC4)n3)ncc2F)ccc1CNC(=O)c1cn(C2CC2)nn1 (centres undefined) | Activity [3]: Tde |
| < 10% | – | CN1CCN([C@@H]2CCCN(c3nc(Nc4ccc(N5CCN(CC6CN(c7ccc8c(c7)C(=O)N(C7CCC(=O)NC7=O)C8=O)C6)CC5)cc4)ncc3F)C2)C1=O (some centres undefined) | – |
| < 10% | – | O=C1CCC(N2C(=O)c3ccc(N4CC(CN5CCN(c6ccc(Nc7ncc(F)c(N8CCC(CO)CC8)n7)cc6)CC5)C4)cc3C2=O)C(=O)N1 (centres undefined) | – |
| 30% | – | CN1CCN([C@@H]2CCCN(c3nc(Nc4ccc(N5CCN(CC6CCN(c7ccc8c(c7)C(=O)N(C7CCC(=O)NC7=O)C8=O)CC6)CC5)cc4)ncc3F)C2)C1=O (some centres undefined) | – |
| < 10% | – | O=C1CCC(N2C(=O)c3ccc(N4CC(CN5CCN(c6ccc(Nc7ncc(F)c(N8CCC(CO)CC8)n7)cn6)CC5)C4)cc3C2=O)C(=O)N1 (centres undefined) | – |
| 39% | – | O=C1CCC(N2C(=O)c3ccc(N4CCC(CN5CCN(c6ccc(Nc7ncc(F)c(N8CCC[C@@H](N9CCOC9=O)C8)n7)cc6)CC5)CC4)cc3C2=O)C(=O)N1 (some centres undefined) | – |
| 20% | – | O=C1CCC(N2C(=O)c3ccc(N4CCC(CN5CCN(c6ccc(Nc7ncc(F)c(N8CCC(CO)CC8)n7)cn6)CC5)CC4)cc3C2=O)C(=O)N1 (centres undefined) | – |
| 95% | 80% | Cc1cc(-c2nc(Nc3cnn(C4CCN(CC5CCN(c6ccc7c(c6)C(=O)N(C6CCC(=O)NC6=O)C7=O)CC5)CC4)c3)ncc2F)ccc1CNC(=O)N1CC(OC(C)C)C1 (centres undefined) | – |
| 63% | 0% | Cc1cc(-c2nc(Nc3ccn(C4CCN(CC5CCN(c6ccc7c(c6)C(=O)N(C6CCC(=O)NC6=O)C7=O)CC5)CC4)n3)ncc2F)ccc1CNC(=O)c1noc(C2CC2)n1 (centres undefined) | – |
| 99% | 96% | NC(=O)c1ncc(N2CCCCC2)nc1Nc1ccc(C2CCN(C[C@@H]3CCN(c4ccc5c(c4)C(=O)N(C4CCC(=O)NC4=O)C5=O)C3)CC2)cc1 (some centres undefined) | TIME [7]: < 1 h; T1/2 [5]: 1.25 h; DC50 [6]: 4.86 nM |
| 49% | 0% | Cc1cc(-c2nc(Nc3cnn(C4CCN(CC5CCN(c6ccc7c(c6)C(=O)N(C6CCC(=O)NC6=O)C7=O)CC5)CC4)c3)ncc2F)ccc1CNC(=O)c1ccc(C(C)(C)C)cc1 (centres undefined) | – |
| < 10% | – | O=C1CCC(N2C(=O)c3ccc(N4CC(CN5CCN(c6ccc(Nc7ncc(F)c(-n8cccn8)n7)cc6)CC5)C4)cc3C2=O)C(=O)N1 (centres undefined) | – |
| < 10% | – | O=C1CCC(N2C(=O)c3ccc(N4CC(CN5CCN(c6ccc(Nc7ncc(F)c(N8CCC[C@@H](N9CCOC9=O)C8)n7)cc6)CC5)C4)cc3C2=O)C(=O)N1 (some centres undefined) | – |
| 20% | – | O=C1CCC(N2C(=O)c3ccc(N4CC(CN5CCC(C#Cc6ccc(Nc7ncc(F)c(N8CCC(CO)CC8)n7)cn6)CC5)C4)cc3C2=O)C(=O)N1 (centres undefined) | – |
| 16% | 0% | Cc1cc(-c2nc(Nc3ccn(C4CCN(CC5CCN(c6ccc7c(c6)C(=O)N(C6CCC(=O)NC6=O)C7=O)CC5)CC4)n3)ncc2F)ccc1CNC(=O)c1cnc(C(C)(C)C)s1 (centres undefined) | – |
| 11% | – | Cn1cc(Nc2nc(Nc3ccc(N4CCN(CC5CN(c6ccc7c(c6)C(=O)N(C6CCC(=O)NC6=O)C7=O)C5)CC4)cc3)ncc2F)cn1 (centres undefined) | – |
| 28% | – | C=CC(=O)Nc1cccc(Nc2nc(Nc3ccc(N4CCN(CC5CCN(c6ccc7c(c6)C(=O)N(C6CCC(=O)NC6=O)C7=O)CC5)CC4)cc3)ncc2F)c1 (centres undefined) | – |
| 35% | – | O=C1CCC(N2C(=O)c3ccc(N4CCC(CN5CCC(C#Cc6ccc(Nc7ncc(F)c(N8CCC(CO)CC8)n7)cn6)CC5)CC4)cc3C2=O)C(=O)N1 (centres undefined) | – |
| 25% | – | O=C1CCC(N2C(=O)c3ccc(N4CCC(CN5CCN(c6ccc(Nc7ncc(F)c(N8CCC(CO)CC8)n7)cc6)CC5)CC4)cc3C2=O)C(=O)N1 (centres undefined) | – |

Further lines, the compound ahead of its results:

| Compound | Activity [1] | Activity [2] | further results |
| --- | --- | --- | --- |
| C=CC(=O)Nc1cccc(Nc2nc(Nc3ccc(N4CCN(C5CN(c6ccc7c(c6)C(=O)N(C6CCC(=O)NC6=O)C7=O)C5)CC4)cc3)ncc2F)c1 (centres undefined) | < 10% | – | – |
| Cc1cc(-c2nc(Nc3ccn(C4CCN(CC5CCN(c6ccc7c(c6)C(=O)N(C6CCC(=O)NC6=O)C7=O)CC5)CC4)n3)ncc2F)ccc1CNC(=O)c1noc(C(C)(C)C)n1 (centres undefined) | 99% | 98% | Activity [3]: Tde; Activity [4]: Active; T1/2 [5]: 1.1 h; DC50 [6]: 10.3 nM |
| Cc1cc(-c2nc(Nc3cnn(C4CN(CC5CCN(c6ccc7c(c6)C(=O)N(C6CCC(=O)NC6=O)C7=O)CC5)C4)c3)ncc2F)ccc1CNC(=O)c1cn(C(C)(C)C)nn1 (centres undefined) | 99% | 99% | Activity [3]: Tde; TIME [7]: < 0.5 h; Activity [4]: Active; T1/2 [5]: 0.71 h; DC50 [6]: 2.49 nM |
| Cc1cc(-c2nc(Nc3ccn(C4CN(CC5CCN(c6ccc7c(c6)C(=O)N(C6CCC(=O)NC6=O)C7=O)CC5)C4)n3)ncc2F)ccc1CNC(=O)c1cnc(C(C)(C)C)s1 (centres undefined) | 95% | 75% | – |
| CC#CC(=O)Nc1cccc(Nc2nc(Nc3ccc(N4CCN(C5CN(c6ccc7c(c6)C(=O)N(C6CCC(=O)NC6=O)C7=O)C5)CC4)cc3)ncc2F)c1 (centres undefined) | 70% | – | – |
| Cc1cc(-c2nc(Nc3cnn(C4CCN(C(=O)CCC(=O)N[C@@H](C)C(=O)N[C@H]5CCC(=O)NC5=O)CC4)c3)ncc2F)ccc1CNC(=O)c1cn(C(C)(C)C)nn1 | 32% | – | – |
| Cc1cc(-c2nc(Nc3ccn(C4CN(CC5CCN(c6ccc7c(c6)C(=O)N(C6CCC(=O)NC6=O)C7=O)CC5)C4)n3)ncc2F)ccc1CNC(=O)c1cn(C2CC2)nn1 (centres undefined) | 97% | 92% | – |
| C#CC(=O)Nc1cccc(Nc2nc(Nc3ccc(N4CCN(C5CN(c6ccc7c(c6)C(=O)N(C6CCC(=O)NC6=O)C7=O)C5)CC4)cc3)ncc2F)c1 (centres undefined) | 54% | – | – |
| Cc1cc(-c2nc(Nc3cnn(C4CCN(CC5CCN(c6ncc(-c7ccc(=O)[nH]n7)cc6F)CC5)CC4)c3)ncc2F)ccc1CNC(=O)c1cn(C(C)(C)C)nn1 | 48% | – | – |
| Cc1cc(-c2nc(Nc3cnn(C4CCN(CC5CCN(c6ccc(C7CCC(=O)NC7=O)cc6F)CC5)CC4)c3)ncc2F)ccc1CNC(=O)c1cn(C(C)(C)C)nn1 (centres undefined) | 57% | – | – |
| Cc1cc(-c2nc(Nc3ccn(C4CN(CC5CCN(c6ccc7c(c6)C(=O)N(C6CCC(=O)NC6=O)C7=O)CC5)C4)n3)ncc2F)ccc1CNC(=O)c1nc(C(C)(C)C)no1 (centres undefined) | 99% | 96% | – |
| Cc1cc(-c2nc(Nc3ccn(C4CCN(CC5CCN(c6ccc7c(c6)C(=O)N(C6CCC(=O)NC6=O)C7=O)CC5)CC4)n3)ncc2F)ccc1CNC(=O)c1nc(C(C)(C)C)no1 (centres undefined) | 99% | 99% | – |
| C=CC(=O)N1CCC[C@@H](n2nc(-c3ccc(Oc4ccccc4)cc3)c3c(N)ncnc32)C1 [IBRUTINIB] | – | – | AUC(0-inf) [8]: 11700 ng·h/mL; AUC(0-t) at 48 h [9]: 11200 ng·h/mL; Cmax [10]: 3460 ng/mL |
| Cc1cc(-c2nc(Nc3ccn(C4CN(CC5CCN(c6ccc7c(c6)C(=O)N(C6CCC(=O)NC6=O)C7=O)CC5)C4)n3)ncc2F)ccc1CNC(=O)c1noc(C(C)(C)C)n1 (centres undefined) | 99% | 78% | – |
| Nc1ncnc2c1c(-c1ccc(Oc3ccccc3)cc1)nn2C1CCN(C(=O)CN2CCN(CC3CN(c4ccc5c(c4)C(=O)N(C4CCC(=O)NC4=O)C5=O)C3)CC2)CC1 (centres undefined) | 99% | 95% | Ki [11]: 50.3 nM; Activity [3]: Tde; Ratio [12]: 13.1; TIME [7]: < 1 h; Activity [13]: 37 nM; IC50 (Protein cereblon): 285 nM; EC50 [14]: 2.74 nM; T1/2 [5]: 1.51 h; DC50 [15]: 7.07 nM; Activity [16]: Active; DC50 [6]: 18.9 nM; IC50 [17]: 95.5 nM |
| O=C(/C=C/C(F)(F)F)Nc1cccc(Nc2nc(Nc3ccc(N4CCN(C5CN(c6ccc7c(c6)C(=O)N(C6CCC(=O)NC6=O)C7=O)C5)CC4)cc3)ncc2F)c1 (centres undefined) | 26% | – | – |
| Cc1cc(-c2nc(Nc3cnn(C4CN(CC5CCN(c6ccc7c(c6)C(=O)N(C6CCC(=O)NC6=O)C7=O)CC5)C4)c3)ncc2F)ccc1CNC(=O)c1ccc(C(C)(C)C)cc1 (centres undefined) | 29% | 0% | – |
